Experimental data published in patent publication US20030228279A1, “Compositions and methods for viral delivery” (Corixa Corporation, priority 2001, published 2003).
“Also recorded” adds a separate entry of the source. Read-outs that look alike come from different tables or passages of the source.

Key:
Aqueous solubility = format: physicochemical; conditions: at physiologic pH
Text: Aqueous solubility is a desirable characteristic of adjuvant-active saponins and aids in vaccine formulation and efficacy (Kensil, 1996). Unlike oil-based emulsions and mineral salt adjuvants which can denature antigens and prevent protective effects, saponins are non-denaturing adjuvants due to their high aqueous solubility. Their high water solubility also obviates extensive homogenation procedures required for emulsion-type adjuvants, permitting simple mixing of aqueous adjuvant and antigen solutions prior to immunization. […] Water-soluble O-glycosides of simple hydroxybenzaldehydes (e.g., helicin (31)) not only occur in nature but readily form stable Schiff-base derivatives as well (see, The Merck Index, 12th ed.; Merck & Co., Inc.: Whitehouse Station, N.J., 1996) The synthetically simpler succinate (VI) is also useful since succinic acid constitutes a simple 4-carbon isostere for the glucuronic acid moiety and has been used to impart triterpenes with aqueous solubility (see, Gottfried and Baxendale, U.S. Pat. No. 3,070,623, 1962).

[1] = cited from earlier work
sheep red blood cells = conditions: cited from earlier work
[2] = in vivo; cited from earlier work
red blood cells = conditions: cited from earlier work

| Molecule | aqueous solubility (Aqueous solubility) | critical micellar concentration in phosphate buffered saline [1] | critical micellar concentration in water [1] | concentrations causing hemolysis of sheep red blood cells (sheep red blood cells) [ng/mL] | adjuvant activity [2] | hemolytic activity towards red blood cells (red blood cells) | concentrations causing no detectable hemolysis of sheep red blood cells (sheep red blood cells) [ng/mL] | concentrations causing hemolysis of sheep red blood cells (sheep red blood cells; sheep red blood cells) [ng/mL] |
| --- | --- | --- | --- | --- | --- | --- | --- | --- |
| O=Cc1cc(OCc2ccc(C(=O)O)cc2)ccc1O [isotucaresol] | sparingly soluble | – | – | – | – | – | – | – |
| QS-17 | – | 0.03 % (w/v) | 0.06 % (w/v) | ≥ 25000 | potent adjuvants | – | – | – |
| QS-7 | – | ~0.07% | approximately 0.06% | – | potent adjuvants; also recorded: potent inducer of cell-mediated and humoral responses | non-hemolytic | ≤ 200000 | – |
| C[C@@H]1CC[C@@]2(OC1)O[C@H]1[C@@H](O)[C@H]3[C@@H]4CC[C@H]5C[C@@H](O[C@@H]6O[C@H](CO)[C@H](O[C@@H]7O[C@H](CO)[C@@H](O)[C@H](O[C@@H]8OC[C@@H](O)[C@H](O)[C@H]8O)[C@H]7O[C@@H]7O[C@H](CO)[C@H](O)[C@H](O[C@@H]8O[C@H](CO)[C@@H](O)[C@H](O)[C@H]8O)[C@H]7O)[C@H](O)[C@H]6O)[C@H](O)C[C@]5(C)[C@H]4CC[C@]3(C)[C@H]1[C@@H]2C [digitonin] | – | – | – | – | adjuvant-inactive | highly hemolytic | – | – |
| QS-18 | – | 0.02 % (w/v) | 0.04 % (w/v) | ≥ 25000 | potent adjuvants | – | – | – |
| QS-21 | – | ~0.02 % (w/v) | about 0.03 % (w/v) | – | potent adjuvants | – | – | ≥ 25000 |
